The values that follow come from ChEMBL document CHEMBL1129910, “Synthesis of an aminopropyl analog of the experimental anticancer drug tallimustine, and activation of its 4-nitrobenzylcarbamoyl prodrug by nitroreductase and NADH” (Bioorg Med Chem Lett, 1997).

Usually IC50 stands for the midpoint of a concentration-inhibition curve.

Common to all, as to type: functional, cell-based
The nature of assay [1]: Cytotoxicity against the growth of LS174T human colon cancer cells was determined using sulforhodamine B assay in the presence of Nitroreductase+NADH.
Assay [2] can be described thus: Cytotoxicity against the growth of LS174T human colon cancer cells was determined using sulforhodamine B assay. (In general: Sulforhodamine B stains cellular protein and so reports cell mass.)
Assay [3] can be described thus: Cytotoxicity against the growth of […] human colon cancer cells was determined using sulforhodamine B assay. Particulars: Cancer cell lines.
Assay [4] in a line: Cytotoxicity against the growth of […] human colon cancer cells was determined using sulforhodamine B assay in the presence of Nitroreductase+NADH. Particulars: Cancer cell lines.

Turning to `Cn1cc(NC(=O)c2cc(NC(=O)c3cc(NC(=O)c4ccc(N(CCCl)CCCl)cc4)cn3C)cn2C)cc1C(=O)NCCCNC(=O)OCc1ccc([N+](=O)[O-])cc1`, the IC50 in assay [1] was found to be 0.02 µM; in assay [2], 2.3 µM; in assay [3], 22.9 µM; in assay [4] it was 9.4 µM.
Regarding `Cn1cc(NC(=O)c2cc(NC(=O)c3cc(NC(=O)c4ccc(N(CCCl)CCCl)cc4)cn3C)cn2C)cc1C(=O)NCCCN`, the IC50 in assay [2] is 0.02 µM; in assay [3] it was 10 µM.
